# According to PMC6694155, “PTPσ inhibitors promote hematopoietic stem cell regeneration” (Nature Communications, 2019):
# “And” between values parts separate entries of the source, which are not always exact repeats. Identical values can stand only once.
# Assays:
# Protein Phosphatase 5 = biological target: T1, Protein Phosphatase 5 (Homo sapiens, UniProt P53041); assay: PhosphataseProfiler screen: PP5; type: biochemical; settings: for Supplementary Figure 1: PP5 activity: replicates
# T1 construct: purchased Eurofins Pharma Discovery Services UK
# T1 sequence (P53041 1-499): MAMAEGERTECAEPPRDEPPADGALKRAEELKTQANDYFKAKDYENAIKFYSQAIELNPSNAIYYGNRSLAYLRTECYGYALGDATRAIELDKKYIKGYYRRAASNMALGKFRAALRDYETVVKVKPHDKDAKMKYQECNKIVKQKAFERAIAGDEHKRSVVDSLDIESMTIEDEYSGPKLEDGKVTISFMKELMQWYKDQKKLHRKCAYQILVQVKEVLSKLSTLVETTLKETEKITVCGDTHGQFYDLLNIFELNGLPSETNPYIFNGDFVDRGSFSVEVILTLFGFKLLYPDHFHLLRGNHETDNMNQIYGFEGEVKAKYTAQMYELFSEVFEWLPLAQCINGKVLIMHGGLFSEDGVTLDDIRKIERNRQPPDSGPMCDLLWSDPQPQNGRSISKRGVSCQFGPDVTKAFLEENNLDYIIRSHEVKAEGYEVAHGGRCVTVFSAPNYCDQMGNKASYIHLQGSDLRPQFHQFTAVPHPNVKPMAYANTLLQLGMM
# Experimental: (§1) Compound DJ001 was evaluated in a PhosphataseProfiler™ screen at 10 μM and 1 μM (2.7 μg/mL and 0.27 μg/mL) concentrations at Eurofins Pharma Discovery Services UK (Study number UK022-0004033) against a panel of 21 Phosphatases. In each experiment, the respective reference antagonist/agonist was tested directly with DJ001 and the data were compared with historical values determined at Eurofins. DJ001 compound inhibition was calculated as percentage inhibition of the enzymatic activity compared with control.
# C57BL/6 mice = assay: Cytokine analysis in vivo (BM supernatant at day +5); parameters: species or system mouse; PTN: unit not given beside the values; IFN-g / IL-1a / IL-1b / IL-2 / IL-4 / IL-3 / IL-5 / IL-6 / IL-7 / IL-9 / IL-10 / IL-12(p40) / IL-12(p70) / LIF / IL-13 / LIX / IL-15 / IL-17 / IP-10 / CXCL12 / SCF / TPO / EGF / DKK / G-CSF / Eotaxin / GM-CSF / KC / MCP-1 / MIP-1a / MIP-1b / M-CSF / MIP-2 / MIG / RANTES / VEGF / TNF-a: unit not given here
# Experimental: For in vitro cytokine measurements, 3.5 × 10^4 BM KSL cells were irradiated with 300 cGy and cultured in TSF media with and without 1 μg/mL DJ001. Non-irradiated KSL cells were cultured in TSF media with and without 1 μg/mL DJ001. At 12 h of culture, culture supernatants were collected for analysis. For in vivo cytokine measurements, adult C57BL/6 mice were irradiated with 750 cGy TBI and then treated with 5 mg/kg of DJ001 or vehicle, subcutaneously, from day + 1 to day + 5. Non-irradiated mice received the identical regimen of 5 mg/kg DJ001 or vehicle for 5 days. Mice were killed and BM cells were collected into IMDM. Cells were pelleted and the BM supernatant was collected and sent to the UCLA Immune Assessment Core for cytokine analysis. All samples were tested on a mouse 32-plex Cytokine/Chemokine panel platform from EMD Milipore using Luminex’s xMAP® immunoassay technology (Luminex, Inc.). In addition, the following cytokine levels were assessed by solid-phase ELISA assay according to the manufacturer’s description: CXCL12 (R&D Systems), SCF (R&D Systems), Thrombopoietin (TPO) (R&D Systems), PTN (Biomatik), DKK1 (R&D Systems), and EGF (R&D Systems).
# [1] = system: PPA (Protein Phosphatase 1); assay: PhosphataseProfiler screen: PPA; type: biochemical; settings: replicates, in % (unit assumed)
# Experimental: as §1
# [2] = 750cGy, Supplementary Figure 6c
# [3] = 750cGy, Supplementary Figure 6d
# [4] = NI (non-irradiated), Supplementary Figure 6c
# [5] = NI (non-irradiated), Supplementary Figure 6d
smiles,measurement,setting,value
"O=C(/C=C\Nc1cccc([N+](=O)[O-])c1)c1ccccc1 [DJ001, (Z)-3-((3-nitrophenyl)amino)-1-phenylprop-2-en-1-one]",Supplementary Figure 1: PP5 activity,Protein Phosphatase 5; 2.7 μg/mL DJ001,58 and 54 and 60
same,Supplementary Figure 1: PP5 activity,Protein Phosphatase 5; 0.27 g/mL DJ001,78 and 80 and 75
same,inhibitory activity against Protein Phosphatase 5,Protein Phosphatase 5; DJ001 at 10 μM and 1 μM,only modest inhibitory activity
same,cytokine levels in BM of non-irradiated mice,C57BL/6 mice; 5 mg/kg DJ001 for 5 days,no effects on cytokine levels
same,IFN-g,C57BL/6 mice; [2],0.02
same,IL-1a,C57BL/6 mice; [2],32.33 and 26.87 and 17.68
same,IL-2,C57BL/6 mice; [2],1.59 and 2.65 and 1.92
same,IL-3,C57BL/6 mice; [2],1.4
same,IL-4,C57BL/6 mice; [2],1.41
same,IL-5,C57BL/6 mice; [2],3.23 and 2.28
same,IL-6,C57BL/6 mice; [2],1.83 and 1.7
same,IL-9,C57BL/6 mice; [2],198.07 and 228.02 and 160.28
same,IL-10,C57BL/6 mice; [2],0.57
same,IL-12(p40),C57BL/6 mice; [2],0.61
same,IL-12(p70),C57BL/6 mice; [2],3.18
same,IL-13,C57BL/6 mice; [2],7.43
same,IL-15,C57BL/6 mice; [2],2.73
same,IL-17,C57BL/6 mice; [2],0.09
same,IP-10,C57BL/6 mice; [2],44.2 and 47.75 and 46.43
same,LIX,C57BL/6 mice; [2],516.55 and 495.26 and 507.12
same,CXCL12,C57BL/6 mice; [3],552 and 624 and 905
same,DKK,C57BL/6 mice; [3],169.52 and 249.19 and 307.94
same,EGF,C57BL/6 mice; [3],11.77 and 17.58 and 11.6
same,Eotaxin,C57BL/6 mice; [3],67.39 and 68.27 and 79.6
same,G-CSF,C57BL/6 mice; [3],64.72 and 76.01 and 58.45
same,GM-CSF,C57BL/6 mice; [3],15.66
same,KC,C57BL/6 mice; [3],22.82 and 26.89 and 24.21
same,MCP-1,C57BL/6 mice; [3],8.72 and 10.08 and 6.75
same,MIG,C57BL/6 mice; [3],128.05 and 148.17 and 148.91
same,MIP-1a,C57BL/6 mice; [3],29.47 and 26.14
same,MIP-1b,C57BL/6 mice; [3],3.05
same,PTN,C57BL/6 mice; [3],102.04 and 118.97 and 192.81
same,RANTES,C57BL/6 mice; [3],2.96 and 2.94
same,SCF,C57BL/6 mice; [3],146.274 and 131.091 and 159.522
same,TNF-a,C57BL/6 mice; [3],3.15
same,TPO,C57BL/6 mice; [3],49.177 and 67.682 and 63.573
same,VEGF,C57BL/6 mice; [3],1.01 and 1.11
same,IL-1b,C57BL/6 mice; [4],0.97
same,IL-3,C57BL/6 mice; [4],1.4
same,IL-4,C57BL/6 mice; [4],1.41
same,IL-5,C57BL/6 mice; [4],2.28
same,IL-7,C57BL/6 mice; [4],0.9937 and 1.153
same,IL-10,C57BL/6 mice; [4],1.167 and 1.4327
same,IL-12(p40),C57BL/6 mice; [4],0.74
same,IL-12(p70),C57BL/6 mice; [4],3.18
same,IL-13,C57BL/6 mice; [4],7.43 and 9.117
same,IL-15,C57BL/6 mice; [4],2.73
same,IL-17,C57BL/6 mice; [4],0.21
same,IP-10,C57BL/6 mice; [4],33.483 and 30.0231 and 37.7364
same,LIF,C57BL/6 mice; [4],0.3842
same,LIX,C57BL/6 mice; [4],761.708 and 684.296 and 1083.25
same,CXCL12,C57BL/6 mice; [5],622.694 and 560.08 and 714.605
same,DKK,C57BL/6 mice; [5],277.711 and 227.737 and 332.999
same,EGF,C57BL/6 mice; [5],2.362 and 1.271 and 1.363
same,Eotaxin,C57BL/6 mice; [5],99.795 and 115.637 and 94.9841
same,G-CSF,C57BL/6 mice; [5],0.02
same,GM-CSF,C57BL/6 mice; [5],15.66
same,KC,C57BL/6 mice; [5],2.085 and 1.462 and 2.044
same,M-CSF,C57BL/6 mice; [5],2.427 and 3.036 and 4.571
same,MCP-1,C57BL/6 mice; [5],3.63 and 5.244
same,MIG,C57BL/6 mice; [5],98.9578 and 70.0219 and 103.204
same,MIP-1b,C57BL/6 mice; [5],7.1682 and 4.315
same,MIP-2,C57BL/6 mice; [5],21.5628 and 31.4245 and 16.3073
same,PTN,C57BL/6 mice; [5],163.391 and 261.361 and 175.154
same,RANTES,C57BL/6 mice; [5],4.272 and 4.763 and 5.943
same,SCF,C57BL/6 mice; [5],23.6572 and 17.6223 and 24.6635
same,TNF-a,C57BL/6 mice; [5],3.15
same,TPO,C57BL/6 mice; [5],7.2054 and 5.699 and 7.158
same,VEGF,C57BL/6 mice; [5],1.293 and 2.139 and 2.31
same,CXCL12 levels in BM of irradiated mice vs vehicle,C57BL/6 mice; day +5 following 750 cGy TBI,modest increase in CXCL12 levels
same,PTN levels in BM of irradiated mice vs vehicle,C57BL/6 mice; day +5 following 750 cGy TBI,decrease in PTN levels
same,Supplementary Figure 1: PPA activity,[1]; 2.7 μg/mL DJ001,101 and 93 and 96
same,Supplementary Figure 1: PPA activity,[1]; 0.27 g/mL DJ001,96 and 90 and 101
